From patent publication US20140161767A1, “FOLLICLE-STIMULATING HORMONE (FSH)/LYTIC DOMAIN FUSION CONSTRUCTS AND METHODS OF MAKING AND USING SAME” (BOARD OF SUPERVISORS OF LOUISIANA STATE UNIVERSITY AND …, priority 2012, published 2014)

Key:
[1] = tested on: OVCAR-3 xenograft; test: OVCAR-3 ovarian cancer xenograft; format: in vivo
Procedure: The xenograft model of the OVCAR-3 human ovarian cancer cell line that present functional LHRH receptors was used in this study. OVCAR-3 represents a slow growing xenograft model and secretes the tumor marker (cancer antigen 125, or CA125). It's secretion can be used as treatment response and is a measure of drug activity.
In brief, Nu/Nu female mice, inbred strain, age 5 weeks (Harlan-Sprague Dawley) were injected subcutaneously with a NIH:OVCAR-3 cells/Matrigel suspension (4.6×10^6 cells/mouse). Treatment was started on day 33 after tumor cell injection when the tumors were established and continued on days 41 and 47. The doses for the 3 weekly injections were 0.02, 0.2 and 2 mg/kg body weight, given as a single bolus intravenous injection via lateral tail vein administered once a week for three weeks on days 33, 41 and 47. Necropsies were conducted on day 52. Data are presented as mean SEM. Arrows show dosing.
A group of 9 tumor bearing mice was sacrificed on day 33 and served as baseline group. All mice were necropsied 51-52 days after tumor cell injection. Tumor volumes and bodyweights were recorded twice weekly during the study, as well as overall veterinarian examination of mice was conducted.
Primary tumors, liver, kidney, pancreas, heart, lung, and spleen were collected, fixed in formalin and prepared for histological evaluation. Tumor weights were measured at necropsy, part of the tumors were frozen at −80° C. for LH/CG and LHRH receptor assay determination.
As a biomarker for drug activity, CA125 was determined in serum, collected from each individual mouse at necropsy using a Enzyme Linked Immunoassay for quantitative determination of ovarian cancer antigen CA125 (Assay kit Genway, Biotech, Inc. San Diego, Calif., Catalog #40-052-115009, # BC-1013 according to the manufacturer).
LHRH receptor levels were assessed from formalin fixed tumors. Quantitative immunoperoxidase image analysis was conducted with the Ventana Image Analysis System (VIAS) adjunctive computer assisted image analysis system functionally connected to an interactive microscope (Axio Imager). The quantitative analysis was conducted with the program for quantification of Her2/neu receptor that included morphometric and colorimetric analysis. Receptor status results were reported as percentage of cells showing positive staining of the LHRH receptors under the following criteria: 0 non-immunoreactive, 1+: 1-25% positive, 2+: 26 50% positive, 3+: 51-75% positive cells.

[2] = tested on: MDA-MB-435S; conditions: cited from earlier work
[3] = tested on: PC-3 xenograft; test: PC-3 prostate cancer xenograft, FSH-Phor18 fusion constructs; format: in vivo, mice; conditions: compared to vehicle
Procedure: This example describes in vivo studies in a mouse xenograft model of human prostate cancer (PC-3) with the three types and doses of (3-FSH-Phor18-fusion constructs (hFSH-β-33-53; hFSH-β-81-95 and hFSH-β-90-95).
Male Nu/Nu mice were injected subcutaneously with a PC-3/Matrigel suspension (1×10^6 cells). Mice were allocated into treatment groups of 8 mice per group on day 21 after tumor cell injection. Treatment started on day 1 and continued on day 5, 8, 12, 15 and 19. […] The doses for twice weekly injections were given as a single bolus injection.

Compound	Tumor volume at necropsy [3]	other results
N.N.[Cl][Pt][Cl] [Cisplatinum, reference compound]	–	Tumor weights at necropsy ([1]; Phor18-LHRH: 2 and 0.2 mg/kg vs saline and Phor18, p<0.05): not effective; Tumor volume ([1]; during treatment): no reduction
COc1cccc2c1C(=O)c1c(O)c3c(c(O)c1C2=O)C[C@@](O)(C(=O)CO)C[C@@H]3O[C@H]1C[C@H](N)[C@H](O)[C@H](C)O1 [doxorubicin]	–	time to destroy human breast cancer cells in vitro [2]: 4 h
CYTRDLVYKDPARPKIQKTCT [hFSH-β-33-53, unconjugated FSH beta chain fragment]	did not affect tumor volumes or tumor weights	–
DSTDCT (Follitropin subunit beta; UniProt P01225 108-113, looked up, fragment) [hFSH-β-90-95, unconjugated FSH beta chain fragment]	did not affect tumor volumes or tumor weights	–
QCHCGKCDSDSTDCT [hFSH-β-81-95, unconjugated FSH beta chain fragment]	did not affect tumor volumes or tumor weights	–
